Tests used:
[1] = test system: soleus muscle; test: bupivacaine myonecrosis model, muscle fiber size (minimal Feret's diameter); assay type: in vivo, Sprague-Dawley rats; conditions: 14 days after injury; for diameters of muscle fibers on average versus blank or bolus control group: in words
Description: The muscle fiber size was determined on H&E-stained muscle cross section and quantified using the minimum distance of parallel tangents at opposing particle borders (minimal “Feret's diameter”). Pictures were captured using a Nikon Eclipse 80i light microscope, and the minimal Feret's diameter was measured using the Image-Pro Plus 4.5.1 software (Media Cybernetics). Normalization of the number of fibers in each fiber Feret class of 5 μm was based on the total number of muscle fibers in each picture.
To investigate the effects of the present PEDF peptides on muscle regeneration, a rat myonecrosis model of a single injection of bupivacaine into the soleus muscle was employed. Adult 10-week-old male Sprague-Dawley rats (initial body weight=312±11 g) were anesthetized by an intraperitoneal injection of a xylazine (10 mg/kg). Then, the soleus muscle was injured by unilaterally injecting 0.5 ml bupivacaine (AstraZeneca) with a disposable syringe with a 26-gauge needle. Briefly, the needle was inserted into the distal portion of the soleus muscle and then receded longitudinally to the proximal portion accompanying evenly bupivacaine solution injection. The solution was then injected throughout the entire length of the muscle as the needle was slowly withdrawn.
After bupivacaine injection, rats were divided equally (n=10/group) into four experimental groups and treated as follows. In the blank control group, the mice were treated with 50 μl of blank alginate gel. In the treatments groups, the mice received 50 μl of the sustained-release formulation (29-mer or 20-mer). The mice in the bolus control group received the bolus formulation (29-mer). Treatments were applied by way of a single intramuscular injection to the soleus muscle immediately after the bupivacaine perfusion.
In the later stage of muscle regeneration, newly generated muscle fibers start to gain size. Muscle specimens were collected at 14 days after injury, and respective fiber diameters were measured in accordance with the procedure set forth in the section of “Materials and Methods.” Results were summarized in FIG. 9.

[2] = test system: aortic ring explants; test: rat aortic ring sprouting assay (ex vivo neovessel sprouting); assay type: cell-based; conditions: aortic rings cultured with PEDF peptide, in words
[3] = test system: bone marrow-derived mesenchymal stem cells (BM-MSCs); test: BM-MSC differentiation into tenocytes, tenomodulin (TNMD) gene expression by RT-PCR; assay type: cell-based, Sprague-Dawley rats; conditions: 50 nM peptide, 1% FBS-DMEM, 24 or 48 hours, in words
Description: Primary rat BM-MSCs were isolated from femur of male Sprague-Dawley rats (300-450 g). Femora were aseptically removed and dissected free of adhering tissues, and then the marrow cavities were flushed by injection of DMEM medium. Collected bone marrow cells were incubated in a 100×15-mm Petri dish in DMEM medium supplemented with 10% FBS, 100 U/ml penicillin, and 100 μg/ml streptomycin for 2 weeks in 5% CO2 at 37° C. The medium was replaced every 2 to 3 days. For passage, near-confluent cells were detached by 0.25% trypsin and then 2×10^5 subcultured cells were seeded in a well of 6-well plate and further cultured in the 10% FBS-DMEM. Before treatment, cells were starved for 12 hours in DMEM supplemented with 1% FBS followed by treatment with 50 nM PEDF-derived peptide (29-mer or 20-mer) in fresh 1% FBS-DMEM for either 24 or 48 hours.
The total RNA was extracted from cells using TRIzol and treated with RNase-free DNase I (Qiagen, Santa Clarita, Calif.) to remove genomic DNA and then purified with an RNA purification kit (Dynabeads). […]
The PCR products were electrophoresed in a 2% agarose gel containing ethidium bromide and visualized by UV illumination. The intensities of the PCR products were quantified densitometrically using a FUJI LAS-3000 system and Multi Gauge Ver. […]

Row | Sequence | diameters of muscle fibers on average versus blank or bolus control group [1] | muscle fibers with a minimal Feret's diameter between 15-25 μm ([1]; sustained-release formulation) | neovessel phenotype by dual immunofluorescence (α-SMA / isolectin B4) [2] | tenocyte differentiation of BM-MSCs (TNMD gene expression) [3]
1 | SLGAEQRTESIIHRALYYDL [20-mer, synthetic peptide corresponding to residues 93-112 of human PEDF] | larger | about 56.6% | displayed arteriole phenotype with a SMC coating | effective inducer of tenocyte-like cell differentiation
2 | SLGAEQRTESIIHRALYYDLISSPDIHGT [29-mer, synthetic peptide corresponding to residues 93-121 of human PEDF] | larger |  | displayed arteriole phenotype with a SMC coating | effective inducer of tenocyte-like cell differentiation

— US9884012B2, “Use of PEDF-derived polypeptides for promoting muscle or tendon regeneration or arteriogenesis” (MacKay Memorial Hospital, priority 2012, dated 2018)
